From the supplement of paper PMC10307832

Assays:
Test in all cases: relative viability (nuclei count vs DMSO), 5 days (fraction); higher = more cells survive
A549 = test system: A549
Procedure, shortened: (§1)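 Each reported value is a median over duplicate plates. It expresses relative viability: treated-well nuclei count divided by vehicle-well nuclei count. Lung cancer cell lines in 1536-well plates were dosed by pin tool a day after seeding, alone with one drug or with a fixed anchor-drug dose plus five library-drug doses (not always all listed) in √10 steps, and nuclei were counted after 5 days.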

Calu-6 = test system: Calu-6
Procedure, shortened: as §1

EBC-1 = test system: EBC-1
Procedure, shortened: as §1

IA-LM = test system: IA-LM
Procedure, shortened: as §1

NCI-H1299 = test system: NCI-H1299
Procedure, shortened: as §1

NCI-H1563 = test system: NCI-H1563
Procedure, shortened: as §1

NCI-H1623 = test system: NCI-H1623
Procedure, shortened: as §1

NCI-H1703 = test system: NCI-H1703
Procedure, shortened: as §1

NCI-H2342 = test system: NCI-H2342
Procedure, shortened: as §1

SW 900 = test system: SW 900
Procedure, shortened: as §1

NCI-H1648 = test system: NCI-H1648
Procedure, shortened: as §1

NCI-H522 = test system: NCI-H522
Procedure, shortened: as §1

O=C(O)CCCCC(CCSCc1ccccc1)SCc1ccccc1 (stereo unspecified) [CPI-613] + COc1cc2c(Oc3ccc(NC(=O)C4(C(=O)Nc5ccc(F)cc5)CC4)cc3F)ccnc2cc1OCCCN1CCOCC1 [Foretinib] (partner 0.25 µM)
relative viability (A549; first compound 5 µM): 0.942
relative viability (A549; first compound 15.81 µM): 0.829
relative viability (A549; first compound 50 µM): 0.848
relative viability (A549; first compound 158.11 µM): 0.944
relative viability (A549; first compound 500 µM): 0.641
relative viability (Calu-6; first compound 5 µM): 0.872
relative viability (Calu-6; first compound 15.81 µM): 0.848
relative viability (Calu-6; first compound 50 µM): 0.865
relative viability (Calu-6; first compound 158.11 µM): 0.769
relative viability (Calu-6; first compound 500 µM): 0.675
relative viability (EBC-1; first compound 5 µM): 0.0958
relative viability (EBC-1; first compound 15.81 µM): 0.0971
relative viability (EBC-1; first compound 50 µM): 0.0899
relative viability (EBC-1; first compound 158.11 µM): 0.0957
relative viability (EBC-1; first compound 500 µM): 0.0975
relative viability (IA-LM; first compound 5 µM): 1.12
relative viability (IA-LM; first compound 15.81 µM): 1.16
relative viability (IA-LM; first compound 50 µM): 1.13
relative viability (IA-LM; first compound 158.11 µM): 0.933
relative viability (IA-LM; first compound 500 µM): 0.872
relative viability (NCI-H1299; first compound 5 µM): 1.03
relative viability (NCI-H1299; first compound 15.81 µM): 1.04
relative viability (NCI-H1299; first compound 50 µM): 1.1
relative viability (NCI-H1299; first compound 158.11 µM): 1.08
relative viability (NCI-H1299; first compound 500 µM): 1.14
relative viability (NCI-H1563; first compound 5 µM): 0.957
relative viability (NCI-H1563; first compound 15.81 µM): 0.896
relative viability (NCI-H1563; first compound 50 µM): 0.892
relative viability (NCI-H1563; first compound 158.11 µM): 0.665
relative viability (NCI-H1563; first compound 500 µM): 0.231
relative viability (NCI-H1623; first compound 5 µM): 0.845
relative viability (NCI-H1623; first compound 15.81 µM): 0.921
relative viability (NCI-H1623; first compound 50 µM): 0.972
relative viability (NCI-H1623; first compound 158.11 µM): 0.59
relative viability (NCI-H1623; first compound 500 µM): 0.831
relative viability (NCI-H1703; first compound 5 µM): 0.442
relative viability (NCI-H1703; first compound 15.81 µM): 0.353
relative viability (NCI-H1703; first compound 158.11 µM): 0.331
relative viability (NCI-H1703; first compound 500 µM): 0.33
relative viability (NCI-H2342; first compound 5 µM): 1.04
relative viability (NCI-H2342; first compound 15.81 µM): 0.978
relative viability (NCI-H2342; first compound 50 µM): 1.04
relative viability (NCI-H2342; first compound 158.11 µM): 1.12
relative viability (NCI-H2342; first compound 500 µM): 1.05
relative viability (SW 900; first compound 5 µM): 0.743
relative viability (SW 900; first compound 15.81 µM): 0.776
relative viability (SW 900; first compound 50 µM): 0.792
relative viability (SW 900; first compound 158.11 µM): 0.418
relative viability (SW 900; first compound 500 µM): 0.0443

O=c1[nH]c2ccccc2n1C1CCN(CCCC(c2ccc(F)cc2)c2ccc(F)cc2)CC1 [Pimozide] + Cc1cc(Nc2cc(N3CCN(C)CC3)nc(Sc3ccc(NC(=O)C4CC4)cc3)n2)n[nH]1 [Tozasertib] (partner 0.1 µM)
relative viability (NCI-H1623; first compound 0.253 µM): 0.439
relative viability (NCI-H1623; first compound 0.8 µM): 0.375
relative viability (NCI-H1623; first compound 2.53 µM): 0.456
relative viability (NCI-H1623; first compound 8 µM): 0.39
relative viability (NCI-H1648; first compound 0.08 µM): 0.574
relative viability (NCI-H1648; first compound 0.253 µM): 0.398
relative viability (NCI-H1648; first compound 0.8 µM): 0.353
relative viability (NCI-H1648; first compound 8 µM): 0.53
relative viability (NCI-H2342; first compound 0.08 µM): 0.51
relative viability (NCI-H2342; first compound 0.253 µM): 0.517
relative viability (NCI-H2342; first compound 0.8 µM): 0.505
relative viability (NCI-H2342; first compound 2.53 µM): 0.488
relative viability (NCI-H2342; first compound 8 µM): 0.576
relative viability (NCI-H522; first compound 0.08 µM): 0.509
relative viability (NCI-H522; first compound 0.253 µM): 0.47
relative viability (NCI-H522; first compound 0.8 µM): 0.573
relative viability (NCI-H522; first compound 2.53 µM): 0.485
relative viability (NCI-H522; first compound 8 µM): 0.525
relative viability (SW 900; first compound 0.08 µM): 0.633
relative viability (SW 900; first compound 0.253 µM): 0.606
relative viability (SW 900; first compound 0.8 µM): 0.54
relative viability (SW 900; first compound 2.53 µM): 0.618
relative viability (SW 900; first compound 8 µM): 0.563

O=C(O)CCCCC(CCSCc1ccccc1)SCc1ccccc1 (stereo unspecified) [CPI-613] + Cc1cc(Nc2cc(N3CCN(C)CC3)nc(Sc3ccc(NC(=O)C4CC4)cc3)n2)n[nH]1 [Tozasertib] (partner 0.1 µM)
relative viability (NCI-H1623; first compound 5 µM): 0.442
relative viability (NCI-H1623; first compound 15.81 µM): 0.387
relative viability (NCI-H1623; first compound 50 µM): 0.421
relative viability (NCI-H1623; first compound 158.11 µM): 0.417
relative viability (NCI-H1623; first compound 500 µM): 0.426
relative viability (NCI-H1648; first compound 5 µM): 0.473
relative viability (NCI-H1648; first compound 15.81 µM): 0.312
relative viability (NCI-H1648; first compound 50 µM): 0.589
relative viability (NCI-H1648; first compound 500 µM): 0.391
relative viability (NCI-H2342; first compound 5 µM): 0.523
relative viability (NCI-H2342; first compound 15.81 µM): 0.527
relative viability (NCI-H2342; first compound 50 µM): 0.511
relative viability (NCI-H2342; first compound 158.11 µM): 0.484
relative viability (NCI-H2342; first compound 500 µM): 0.625
relative viability (NCI-H522; first compound 5 µM): 0.512
relative viability (NCI-H522; first compound 15.81 µM): 0.563
relative viability (NCI-H522; first compound 50 µM): 0.573
relative viability (NCI-H522; first compound 158.11 µM): 0.419
relative viability (NCI-H522; first compound 500 µM): 0.325
relative viability (SW 900; first compound 5 µM): 0.511
relative viability (SW 900; first compound 15.81 µM): 0.557
relative viability (SW 900; first compound 50 µM): 0.473
relative viability (SW 900; first compound 158.11 µM): 0.199
relative viability (SW 900; first compound 500 µM): 0.0732
